# Results reported in patent publication US6914045B2, “Glycopeptide antibiotics” (Wyeth Holdings Corporation, priority 2001, dated 2005).
# Key:
# Experiment in all cases: in vitro antibacterial evaluation, MIC by broth dilution
# Assay type in all cases: cell-based
# [1] = test system: Escherichia coli
# In short: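 MIC is the lowest antibiotic concentration (tested 64-0.06 μg/mL) preventing growth of a 5×10^5 CFU/mL inoculum. Determined by broth dilution in Mueller-Hinton II medium following NCCLS standard M7-A2.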
# [2] = test system: Staphylococcus sp.
# In short: (§1)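 Step 1: dilute antibiotic across 64-0.06 μg/mL in Muller-Hinton II […]. Step 2: inoculate at 5×10^5 CFU/mL.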
# [3] = test system: Enterococcus sp.
# In short: as §1
# [4] = test system: Streptococcus sp.
# In short: as §1
smiles,measurement,setting,value
"CC(c1ccccc1)C1NC(=O)CNC(=O)C(CO)NC(=O)C(C(O)C2CNC(=N)N2C2OC(CO)C(O)C(O)C2O)NC(=O)C(C(O)C2CNC(=N)N2)NC(=O)C(Cc2ccc3oc(-c4ccc5c(c4)Cc4ccccc4-5)nc3c2)NC1=O (stereo not drawn) [Example 37, Cyclo[3-[2-(9H-fluoren-2-yl)-1,3-benzoxazol-5-yl]alanyl-3-(2-iminoimidazolidin-4-yl)seryl-3-(3-hexopyranosyl-2-iminoimidazolidin-4-yl)serylserylglycyl-β-methylphenylalanyl]]",MIC Escherichia coli (ATCC 25922),[1],128 µg/mL
same,MIC Escherichia coli (GC 4559),[1],>128 µg/mL
same,MIC Escherichia coli (GC 4560),[1],4 µg/mL
same,MIC Coagulase Negative Staphylococcus (GC 4547),[2],16 µg/mL
same,MIC Coagulase Negative Staphylococcus (GC 4548),[2],8 µg/mL
same,MIC Coagulase Negative Staphylococcus (GC 4549),[2],8 µg/mL
same,MIC Coagulase Negative Staphylococcus (GC 4551),[2],8 µg/mL
same,MIC Coagulase Negative Staphylococcus (GC 6257),[2],4 µg/mL
same,MIC Staphylococcus aureus (ATCC 29213),[2],16 µg/mL
same,MIC Staphylococcus aureus (GC 1131),[2],8 µg/mL
same,MIC Staphylococcus aureus (GC 3051),[2],8 µg/mL
same,MIC Staphylococcus aureus (GC 3053),[2],8 µg/mL
same,MIC Staphylococcus aureus (GC 4541),[2],8 µg/mL
same,MIC Staphylococcus aureus (GC 4542),[2],8 µg/mL
same,MIC Staphylococcus aureus (GC 4544),[2],8 µg/mL
same,MIC Staphylococcus aureus (GC 4545),[2],16 µg/mL
same,MIC Staphylococcus aureus-SMITH (GC 4543),[2],8 µg/mL
same,MIC Staphylococcus haemolyticus (GC 4546),[2],8 µg/mL
same,MIC Enterococcus avium (GC 4558),[3],8 µg/mL
same,MIC Enterococcus faecalis (ATCC 29212),[3],16 µg/mL
same,MIC Enterococcus faecalis (GC 2242),[3],16 µg/mL
same,MIC Enterococcus faecalis (GC 2691),[3],16 µg/mL
same,MIC Enterococcus faecalis (GC 3059),[3],16 µg/mL
same,MIC Enterococcus faecalis (GC 4552),[3],16 µg/mL
same,MIC Enterococcus faecalis (GC 4553),[3],4 µg/mL
same,MIC Enterococcus faecalis (GC 4554),[3],16 µg/mL
same,MIC Enterococcus faecalis (GC 6189),[3],16 µg/mL
same,MIC Enterococcus faecium (GC 2243),[3],8 µg/mL
same,MIC Enterococcus faecium (GC 4556),[3],16 µg/mL
same,MIC Enterococcus faecium (GC 4557),[3],4 µg/mL
same,MIC Streptococcus agalactiae (GC 4564),[4],16 µg/mL
same,MIC Streptococcus pneumoniae (ATCC 6301),[4],32 µg/mL
same,MIC Streptococcus pneumoniae (GC 1894),[4],16 µg/mL
same,MIC Streptococcus pneumoniae (GC 4565),[4],16 µg/mL
same,MIC Streptococcus pyogenes (GC 4563),[4],4 µg/mL
